Experimental data reported in patent US20240101576A1, “HETEROCYCLIC INHIBITORS OF EGFR AND/OR HER2, FOR USE IN THE TREATMENT OF CANCER” (Scorpion Therapeutics, Inc., priority 2020, published 2024).

What was measured:
Assay type in all cases: cell-based
EGFR L858R (Ba/F3 cells) [1] = molecular target: T1, EGFR L858R (Ba/F3 cells) (Homo sapiens, UniProt P00533, L858R); experiment: Inhibitor activity on EGFR-dependent cell growth (CellTiter-Glo, 72 h), Ba/F3 EGFR L858R; settings: read-out: BaF3 L858R IC50
T1 construct: expressed in transfected cells; host or cells: Ba/F3 (murine pro-B cells), retroviral transduction, puromycin selection, IL3-independent pool
How it was run: (§1)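 Ba/F3, retrovirally transduced, puromycin-selected, grown without IL3; cells/well: L858R 400, L858R/C797S 600, exon 19del 800, FQEA 800. Cpds from 10 mM DMSO stock, 3-fold ×10 dilution, 120 nL per well; 72 h. CTG readout; IC50 via Hill equation.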

[2] = molecular target: T2, EGFR exon 19del (Ba/F3 cells) (Homo sapiens, UniProt P00533); experiment: Inhibitor activity on EGFR-dependent cell growth (CellTiter-Glo, 72 h), Ba/F3 EGFR exon 19del; settings: Ba/F3 EGFR exon 19del cell growth, read-out: BaF3 Del19 IC50
How it was run: as §1

[3] = molecular target: T3, EGFR L858R/C797S (Ba/F3 cells) (Homo sapiens, UniProt P00533, C797S/L858R); experiment: Inhibitor activity on EGFR-dependent cell growth (CellTiter-Glo, 72 h), Ba/F3 EGFR L858R/C797S; settings: read-out: BaF3 L858R/C797S IC50
T3 construct: expressed in transfected cells; host or cells: Ba/F3 (murine pro-B cells), retroviral transduction, puromycin selection, IL3-independent pool
From the text: Example A. Inhibitor Activity on EGFR-Dependent Cell Growth
Cell lines are generated by transducing Ba/F3 cells with retroviruses containing vectors with EGFR WT, EGFR L858R, EGFR exon 19del, EGFR L858R/C797S, EGFR exon 20 NPG Ins D770_N771, EGFR exon 20 ASV Ins V769_D770, EGFR exon 20 SVD Ins D770_N771, or EGFR exon 20 FQEA Ins A763_V764 genes and a puromycin selection marker. Transduced cells are selected with puromycin for 7 days and are then be transferred into culture media without Interleukin 3 (IL3). EGFR WT cells are maintained with supplemental EGF. Surviving cells are confirmed to express EGFR by Western blot and maintained as a pool. The IC50 date were included in Table 6 and Table 7.
(§2) 1.1 Cells are harvested from flask into cell culture medium and the cell number counted.
1.2 Cells are diluted with culture medium to the desired density and 40 μL of cell suspension is added into each well of 384-well cell culture plate and the seeding density is 800 (FQEA, exon 19del), 600 (WT, NPG, L858R/C797S), or 400 (ASV, SVD, L858R) cells/well.
(§3) 2 Compound Preparation and Treatment
(§4) 2.1 Test compounds are dissolved to 10 mM in a DMSO stock solution. 45 μL of stock solution is transferred to a 384 polypropylene plate (pp-plate). Perform 3-fold, 10-point dilution via transferring 15 μL compound into 30 μL DMSO using a TECAN (EVO200) liquid handler.
(§5) 2.2 Spin plates at room temperature at 1,000 RPM for 1 minute.
2.3 Transfer 120 nL of diluted compound from compound source plate into the cell plate.
2.4 After compound treatment for 72 hours, perform CTG detection for compound treatment plates as described in “Detection” section.
3.1 Plates are removed from incubators and equilibrated at room temperature for 15 minutes.
3.2 Thaw the CellTiter Glo reagents and allow to equilibrate to room temperature before the experiment.
3.3 Add 40 μL of CellTiter-Glo reagent into each well (at 1:1 to culture medium). Then place the plates at room temperature for 30 min followed by reading on EnVision.
4.1 Inhibition activity is calculated following the formula below:
% Inhibition=100×(LumHC−LumSample)/(LumHC−LumLC) • where HC is obtained from cells treated with 0.1% DMSO only; and LC is obtained from culture medium only.
4.2 2. Calculate the IC50 by fitting the Curve using Xlfit (v5.3.1.3), equation 201.
Y=Bottom+(Top−Bottom)/(1+10^((Log IC50−X)*HillSlope))

EGFR L858R (Ba/F3 cells) [4] = molecular target: T1, EGFR L858R (Ba/F3 cells); experiment: Inhibitor activity on EGFR phosphorylation (pEGFR AlphaLISA, 2 h), Ba/F3 EGFR L858R
From the text: (§6) Example B. Inhibitor Activity on EGFR phosphorylation (pEGFR)
(§7) EGFR mutant Ba/F3 cells were generated by transduction with retrovirus containing vectors expressing EGFR L858R, EGFR exon 19del, EGFR L858R/C797S, EGFR exon 20 NPG Ins D770_N771, EGFR exon 20 ASV Ins V769_D770, or EGFR exon 20 SVD Ins D770_N771 genes along with a puromycin selection marker. Transduced cells are selected with puromycin for 7 days and are then be transferred into culture media without Interleukin 3 (IL3). Surviving cells are confirmed to express EGFR by Western blot and maintained as a pool. CUTO14 cells were obtained from Dr. Robert C. Doebele at the University of Colorado. The IC50 date are included in Table 6 and Table 7.
as §2
(§8) 1.2 Cells are diluted with culture medium to the desired density and 40 μL of cell suspension is added into each well of 384-well cell culture plate and the seeding density is 50K cells/well (Ba/F3) or 12.5K cells/well (CUTO14).
as §3, §4, §5
(§9) 2.3 Transfer 5 nL of diluted compound from compound source plate into the cell plate.
(§10) 2.4 After compound treatment for 2 hours, perform pEGFR detection by AlphaLISA for compound treatment plates as described in “Detection” section.
(§11) 3 Detection by pEGFR AlphaLISA (Perkin-Elmer)
(§12) 3.1 Plates are removed from incubators and equilibrated at room temperature for 10 minutes, and media was removed
(§13) 3.2 10 μL of lysis buffer is added and plates shaken at 600 rpm for 1 hr.
(§14) 3.3 Prepare acceptor mix just before use and dispense 5 μL of acceptor mix to all the wells. Shake 350 rpm for Ihr in the dark
(§15) 3.4 Prepare donor mix under low light conditions prior to use. Dispense 5 μL of donor mix to all the wells. Mix well on the shaker, seal and wrap in aluminum foil and incubate 1.5 hrs at room temperature in the dark
(§16) 3.5 Transfer 18.5 μL mixture to OptiPlate 384, and read using an Envision. The IC50 date were included in Table 6 and Table 7.

[5] = molecular target: T2, EGFR exon 19del (Ba/F3 cells); experiment: Inhibitor activity on EGFR phosphorylation (pEGFR AlphaLISA, 2 h), Ba/F3 EGFR exon 19del; settings: read-out: Del19 IC50 (pEGFR)
From the text: as §6, §7, §2, §8, §3, §4, §5, §9, §10, §11, §12, §13, §14, §15, §16

[6] = molecular target: T3, EGFR L858R/C797S (Ba/F3 cells); experiment: Inhibitor activity on EGFR phosphorylation (pEGFR AlphaLISA, 2 h), Ba/F3 EGFR L858R/C797S
From the text: as §6, §7, §2, §8, §3, §4, §5, §9, §10, §11, §12, §13, §14, §15, §16

EGFR WT (Ba/F3 cells) = molecular target: T4, EGFR WT (Ba/F3 cells) (Homo sapiens, UniProt P00533); experiment: Inhibitor activity on EGFR-dependent cell growth (CellTiter-Glo, 72 h), Ba/F3 EGFR WT; settings: read-out: BaF3 WT IC50
T4 construct: expressed in transfected cells; host or cells: Ba/F3 (murine pro-B cells), retroviral transduction, puromycin selection, maintained with EGF
How it was run: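 This growth assay used Ba/F3 cells that depend on wild-type EGFR and are kept in EGF without IL3. Compounds were made up as 10 mM DMSO stocks and diluted 3-fold over 10 points. 120 nL went onto 600 cells/well. After 72 hours, 40 μL CellTiter-Glo was added and luminescence read on EnVision after 30 min.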

[7] = molecular target: T5, EGFR exon 20 ASV Ins V769_D770 (Ba/F3 cells) (Homo sapiens, UniProt P00533, INS769ASV); experiment: Inhibitor activity on EGFR-dependent cell growth (CellTiter-Glo, 72 h), Ba/F3 EGFR exon 20 ASV Ins; settings: read-out: BaF3 ASV IC50
T5 construct: expressed in transfected cells; host or cells: Ba/F3 (murine pro-B cells), retroviral transduction, puromycin selection, IL3-independent pool
How it was run: (§17)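 IC50s derive from a sigmoidal dose–response fit of CellTiter-Glo signal. The signal was normalised between […]-treated cells and cell-free medium. Ba/F3 mutant-EGFR cells, seeded at 400–800/well depending on the line, had 72 h of exposure to a 10-point, 3-fold compound series.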

[8] = molecular target: T6, EGFR exon 20 SVD Ins D770_N771 (Ba/F3 cells) (Homo sapiens, UniProt P00533, INS770SVD); experiment: Inhibitor activity on EGFR-dependent cell growth (CellTiter-Glo, 72 h), Ba/F3 EGFR exon 20 SVD Ins; settings: read-out: BaF3 SVD IC50
T6 construct: expressed in transfected cells; host or cells: Ba/F3 (murine pro-B cells), retroviral transduction, puromycin selection, IL3-independent pool
How it was run: as §17

[9] = molecular target: T7, EGFR exon 20 FQEA Ins A763_V764 (Ba/F3 cells) (Homo sapiens, UniProt P00533, INS763FQEA); experiment: Inhibitor activity on EGFR-dependent cell growth (CellTiter-Glo, 72 h), Ba/F3 EGFR exon 20 FQEA Ins; settings: read-out: BaF3 FQEA IC50
T7 construct: expressed in transfected cells; host or cells: Ba/F3 (murine pro-B cells), retroviral transduction, puromycin selection, IL3-independent pool
How it was run: as §1

[10] = molecular target: T8, EGFR exon 20 NPG Ins D770_N771 (Ba/F3 cells) (Homo sapiens, UniProt P00533, INS770NPG); experiment: Inhibitor activity on EGFR-dependent cell growth (CellTiter-Glo, 72 h), Ba/F3 EGFR exon 20 NPG Ins; settings: read-out: BaF3 NPG IC50
T8 construct: expressed in transfected cells; host or cells: Ba/F3 (murine pro-B cells), retroviral transduction, puromycin selection, IL3-independent pool
How it was run: as §17

EGFR (CUTO14 cells) = EGFR (CUTO14 cells) (Homo sapiens, UniProt P00533); experiment: Inhibitor activity on EGFR phosphorylation (pEGFR AlphaLISA, 2 h), CUTO14 cells
From the text: as §6, §7, §2, §8, §3, §4, §5, §9, §10, §11, §12, §13, §14, §15, §16

Chain of EGFR (CUTO14 cells) (P00533 with tags, fused parts or gaps DUP767-769): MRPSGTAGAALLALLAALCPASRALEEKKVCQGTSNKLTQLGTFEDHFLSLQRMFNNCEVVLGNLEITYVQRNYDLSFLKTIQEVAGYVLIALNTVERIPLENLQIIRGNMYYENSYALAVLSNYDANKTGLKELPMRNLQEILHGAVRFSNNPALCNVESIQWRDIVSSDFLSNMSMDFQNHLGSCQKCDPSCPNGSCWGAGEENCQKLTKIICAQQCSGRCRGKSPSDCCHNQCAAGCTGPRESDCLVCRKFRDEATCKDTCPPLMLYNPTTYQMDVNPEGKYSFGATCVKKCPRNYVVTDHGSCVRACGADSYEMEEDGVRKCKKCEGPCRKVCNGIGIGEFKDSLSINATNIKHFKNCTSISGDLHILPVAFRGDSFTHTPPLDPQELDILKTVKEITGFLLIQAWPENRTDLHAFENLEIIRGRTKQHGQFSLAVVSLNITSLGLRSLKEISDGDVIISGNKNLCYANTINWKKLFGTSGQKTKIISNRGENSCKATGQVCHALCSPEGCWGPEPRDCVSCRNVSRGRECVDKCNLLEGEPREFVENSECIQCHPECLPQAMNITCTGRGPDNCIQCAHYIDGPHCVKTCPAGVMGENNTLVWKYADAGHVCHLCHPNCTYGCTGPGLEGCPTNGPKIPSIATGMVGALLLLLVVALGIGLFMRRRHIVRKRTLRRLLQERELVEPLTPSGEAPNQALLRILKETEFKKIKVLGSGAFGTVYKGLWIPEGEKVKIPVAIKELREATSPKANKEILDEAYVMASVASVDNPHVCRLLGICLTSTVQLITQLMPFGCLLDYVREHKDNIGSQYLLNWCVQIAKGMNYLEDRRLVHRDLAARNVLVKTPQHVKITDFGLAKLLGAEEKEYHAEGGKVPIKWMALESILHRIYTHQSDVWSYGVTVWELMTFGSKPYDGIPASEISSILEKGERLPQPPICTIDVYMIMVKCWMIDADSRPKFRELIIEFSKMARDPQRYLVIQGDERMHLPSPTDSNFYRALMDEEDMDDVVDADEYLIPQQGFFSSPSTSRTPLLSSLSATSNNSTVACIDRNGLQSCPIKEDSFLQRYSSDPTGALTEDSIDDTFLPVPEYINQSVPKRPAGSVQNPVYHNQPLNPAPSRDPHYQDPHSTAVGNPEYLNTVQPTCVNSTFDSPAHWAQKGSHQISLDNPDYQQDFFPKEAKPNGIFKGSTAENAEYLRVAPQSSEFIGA
T2 sequence (P00533 with tags, fused parts or gaps DEL746-750): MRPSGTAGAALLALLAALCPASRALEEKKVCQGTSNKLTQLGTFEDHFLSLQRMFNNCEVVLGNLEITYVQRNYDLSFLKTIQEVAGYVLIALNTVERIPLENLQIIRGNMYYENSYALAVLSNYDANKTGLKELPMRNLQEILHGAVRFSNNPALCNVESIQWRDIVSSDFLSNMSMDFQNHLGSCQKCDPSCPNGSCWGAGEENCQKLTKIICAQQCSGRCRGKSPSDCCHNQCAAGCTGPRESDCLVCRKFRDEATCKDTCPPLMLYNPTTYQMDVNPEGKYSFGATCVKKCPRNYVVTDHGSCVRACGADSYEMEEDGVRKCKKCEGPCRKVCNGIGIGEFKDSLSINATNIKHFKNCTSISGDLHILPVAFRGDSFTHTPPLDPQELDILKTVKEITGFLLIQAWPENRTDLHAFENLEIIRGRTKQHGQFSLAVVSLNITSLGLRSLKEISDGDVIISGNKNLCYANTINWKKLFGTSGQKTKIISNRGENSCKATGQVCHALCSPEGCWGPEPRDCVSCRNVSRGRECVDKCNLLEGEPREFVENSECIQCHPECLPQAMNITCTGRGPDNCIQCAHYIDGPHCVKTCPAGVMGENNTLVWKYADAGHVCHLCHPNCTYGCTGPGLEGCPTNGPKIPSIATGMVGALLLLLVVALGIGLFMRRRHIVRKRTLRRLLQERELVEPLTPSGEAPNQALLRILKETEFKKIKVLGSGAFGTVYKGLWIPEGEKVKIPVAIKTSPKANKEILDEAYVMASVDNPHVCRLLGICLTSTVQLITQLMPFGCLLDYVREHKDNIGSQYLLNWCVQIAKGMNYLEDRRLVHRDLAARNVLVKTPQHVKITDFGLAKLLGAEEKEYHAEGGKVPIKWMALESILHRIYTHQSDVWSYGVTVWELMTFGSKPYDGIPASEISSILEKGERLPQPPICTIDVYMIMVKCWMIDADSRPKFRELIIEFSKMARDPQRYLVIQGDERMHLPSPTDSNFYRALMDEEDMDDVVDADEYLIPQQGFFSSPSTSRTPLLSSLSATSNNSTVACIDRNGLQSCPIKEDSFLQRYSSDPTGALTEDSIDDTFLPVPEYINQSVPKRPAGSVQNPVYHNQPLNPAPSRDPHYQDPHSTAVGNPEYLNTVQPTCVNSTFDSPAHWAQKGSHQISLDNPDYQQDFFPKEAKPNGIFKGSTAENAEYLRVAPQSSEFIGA
T6 sequence (P00533 with tags, fused parts or gaps INS770SVD): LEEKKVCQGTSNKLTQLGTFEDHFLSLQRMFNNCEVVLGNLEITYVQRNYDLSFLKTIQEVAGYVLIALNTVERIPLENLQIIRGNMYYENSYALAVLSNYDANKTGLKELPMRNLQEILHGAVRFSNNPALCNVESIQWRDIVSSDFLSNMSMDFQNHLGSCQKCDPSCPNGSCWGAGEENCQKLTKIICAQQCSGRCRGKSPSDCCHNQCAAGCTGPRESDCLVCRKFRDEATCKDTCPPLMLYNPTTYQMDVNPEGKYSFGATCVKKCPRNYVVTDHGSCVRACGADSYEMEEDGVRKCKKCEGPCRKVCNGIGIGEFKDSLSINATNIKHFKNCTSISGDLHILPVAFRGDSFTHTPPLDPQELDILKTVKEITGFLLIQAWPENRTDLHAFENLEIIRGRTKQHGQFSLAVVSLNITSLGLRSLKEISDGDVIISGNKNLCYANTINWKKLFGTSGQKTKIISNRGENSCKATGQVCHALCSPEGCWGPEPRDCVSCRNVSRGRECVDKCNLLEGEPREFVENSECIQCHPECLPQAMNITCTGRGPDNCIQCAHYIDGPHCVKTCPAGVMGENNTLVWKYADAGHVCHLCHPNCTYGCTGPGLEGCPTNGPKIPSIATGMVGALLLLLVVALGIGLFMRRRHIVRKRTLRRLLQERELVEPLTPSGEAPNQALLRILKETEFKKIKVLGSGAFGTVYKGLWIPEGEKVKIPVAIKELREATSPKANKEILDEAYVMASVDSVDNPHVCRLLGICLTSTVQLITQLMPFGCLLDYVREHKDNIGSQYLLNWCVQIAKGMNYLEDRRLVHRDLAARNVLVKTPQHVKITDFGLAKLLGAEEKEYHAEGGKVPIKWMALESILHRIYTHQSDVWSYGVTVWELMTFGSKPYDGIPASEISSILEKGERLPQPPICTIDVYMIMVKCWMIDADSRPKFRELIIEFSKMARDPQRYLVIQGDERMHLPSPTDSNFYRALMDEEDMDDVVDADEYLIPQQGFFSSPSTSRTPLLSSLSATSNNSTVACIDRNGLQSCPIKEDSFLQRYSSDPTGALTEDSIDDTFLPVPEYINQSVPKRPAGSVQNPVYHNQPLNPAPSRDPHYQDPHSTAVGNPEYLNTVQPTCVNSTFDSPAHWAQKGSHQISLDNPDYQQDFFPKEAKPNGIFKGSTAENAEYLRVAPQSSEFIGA
T8 sequence (P00533 with tags, fused parts or gaps INS770NPG): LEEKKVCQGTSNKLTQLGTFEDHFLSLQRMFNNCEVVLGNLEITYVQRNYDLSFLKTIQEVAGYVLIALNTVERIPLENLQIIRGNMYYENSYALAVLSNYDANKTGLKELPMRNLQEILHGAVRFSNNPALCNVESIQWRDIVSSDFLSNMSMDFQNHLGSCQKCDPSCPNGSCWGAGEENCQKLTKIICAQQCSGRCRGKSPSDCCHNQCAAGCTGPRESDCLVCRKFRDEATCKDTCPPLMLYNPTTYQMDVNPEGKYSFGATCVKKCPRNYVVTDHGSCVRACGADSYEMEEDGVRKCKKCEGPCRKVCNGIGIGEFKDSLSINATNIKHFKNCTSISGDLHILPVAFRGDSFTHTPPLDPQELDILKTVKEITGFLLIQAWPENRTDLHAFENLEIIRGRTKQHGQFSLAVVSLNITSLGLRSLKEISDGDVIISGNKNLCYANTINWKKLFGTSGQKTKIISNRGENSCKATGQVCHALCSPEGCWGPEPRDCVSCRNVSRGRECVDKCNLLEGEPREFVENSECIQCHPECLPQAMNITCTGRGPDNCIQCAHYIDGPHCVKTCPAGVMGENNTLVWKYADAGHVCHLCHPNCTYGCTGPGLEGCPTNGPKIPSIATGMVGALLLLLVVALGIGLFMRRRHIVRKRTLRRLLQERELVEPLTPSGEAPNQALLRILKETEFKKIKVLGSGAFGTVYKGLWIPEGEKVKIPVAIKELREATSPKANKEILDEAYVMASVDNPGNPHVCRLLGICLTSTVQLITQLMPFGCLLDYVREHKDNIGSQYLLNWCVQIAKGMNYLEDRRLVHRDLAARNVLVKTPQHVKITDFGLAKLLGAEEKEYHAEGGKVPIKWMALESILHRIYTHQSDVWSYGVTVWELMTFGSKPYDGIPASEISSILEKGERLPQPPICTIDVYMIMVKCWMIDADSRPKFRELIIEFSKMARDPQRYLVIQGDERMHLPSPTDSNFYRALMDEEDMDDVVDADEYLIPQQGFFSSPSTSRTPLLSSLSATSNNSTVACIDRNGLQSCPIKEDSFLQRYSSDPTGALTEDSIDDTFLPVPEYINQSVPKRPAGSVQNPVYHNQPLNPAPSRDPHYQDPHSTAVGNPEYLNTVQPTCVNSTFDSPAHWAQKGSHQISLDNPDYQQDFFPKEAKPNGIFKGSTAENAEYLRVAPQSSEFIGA

| Compound | IC50 (EGFR L858R (Ba/F3 cells) [1]) [nM] | IC50 [2] [nM] | IC50 [3] [nM] | IC50 (EGFR L858R (Ba/F3 cells) [4]) [nM] | IC50 [5] [nM] | IC50 [6] [nM] | IC50 (EGFR WT (Ba/F3 cells)) [nM] | IC50 [7] [nM] | IC50 [8] [nM] | IC50 [9] [nM] | IC50 [10] [nM] | IC50 (EGFR (CUTO14 cells)) [nM] |
| --- | --- | --- | --- | --- | --- | --- | --- | --- | --- | --- | --- | --- |
| COc1c(Cl)cc(F)cc1Nc1c(-c2ccnc(C)n2)[nH]c2c1C(=O)NC[C@@H]2C[C@@H]1COCCO1 [compound 651] | – | – | < 100 | – | – | < 100 | 100 to 1000 | < 100 | < 100 | – | < 100 | < 100 |
| COc1c(Cl)cccc1Nc1c(-c2ccnc(N)n2)[nH]c2c1C(=O)NC[C@H]2C[C@H]1COCCO1 [Compound 571, (7R)-2-(2-aminopyrimidin-4-yl)-3-[(3-chloro-2-methoxyphenyl)amino]-7-[(2S)-1,4-dioxan-2-ylmethyl]-1H,5H,6H,7H-pyrrolo[3,2-c]pyridin-4-one] | < 100 | < 100 | – | – | – | – | 100 to 1000 | < 100 | < 100 | < 100 | < 100 | < 100 |

Continued, values first:

| IC50 (EGFR L858R (Ba/F3 cells) [1]) [nM] | IC50 [2] [nM] | IC50 [3] [nM] | IC50 (EGFR L858R (Ba/F3 cells) [4]) [nM] | IC50 [5] [nM] | IC50 [6] [nM] | IC50 (EGFR WT (Ba/F3 cells)) [nM] | IC50 [7] [nM] | IC50 [8] [nM] | IC50 [9] [nM] | IC50 [10] [nM] | IC50 (EGFR (CUTO14 cells)) [nM] | Compound |
| --- | --- | --- | --- | --- | --- | --- | --- | --- | --- | --- | --- | --- |
| < 100 | < 100 | < 100 | < 100 | < 100 | < 100 | 100 to 1000 | < 100 | < 100 | < 100 | – | – | COc1ncc2nccc(-c3[nH]c4c(c3Nc3cccc(F)c3OC)C(=O)NCC4)c2n1 [compound 409] |
| < 100 | < 100 | < 100 | – | – | < 100 | 100 to 1000 | < 100 | < 100 | – | < 100 | < 100 | COCC[C@H]1CNC(=O)c2c1[nH]c(-c1ccnc(C)n1)c2Nc1cccc(F)c1OC [453b] |
| < 100 | < 100 | < 100 | – | – | < 100 | 100 to 1000 | < 100 | < 100 | – | < 100 | < 100 | COc1c(F)cccc1Nc1c(-c2ccnc(C)n2)[nH]c2c(C[C@@H]3COCCO3)c[nH]c(=O)c12 [compound 658] |
